{"source": "patent US10314848B2", "about": "“Use of testosterone and a 5-HT1A agonist in the treatment of sexual dysfunction” (EB IP LYBRIDOS B.V., priority 2006, dated 2019)", "origin": "cited, not measured here", "data": [{"compound": "O=C(NCCN1CCN(c2cccc3c2OC[C@H](CO)O3)CC1)c1ccc(F)cc1", "note": "[flesinoxan]", "values": [{"measurement": "Time to maximum plasma concentration", "setting": "in vivo", "value": "1 to 2", "unit": "h"}, {"measurement": "half-life", "setting": "single doses", "value": 5.5, "unit": "h"}]}, {"compound": "CCCc1nc(C)c2c(=O)nc(-c3cc(S(=O)(=O)N4CCN(CC)CC4)ccc3OCC)[nH]n12.Cl", "note": "[vardenafil, piperazine, 1-[[3-(1,4-dihydro-5-methyl-4-oxo-7-propylimidazo[5,1-f][1,2,4]triazin-2-yl)-4-ethoxyphenyl]sulfonyl]-4-ethyl-, monohydrochloride]", "values": [{"measurement": "Time to peak plasma concentration after administration", "setting": "in vivo", "value": "about 1 hour"}]}]}
